From patent publication US11117932B2, “Peptides for specific inhibition of Jag 1-Notch 1 pathway” (The Hong Kong Polytechnic University, priority 2018, dated 2021)
Read-outs that look alike come from different tables or passages of the source. Residues, ends and D or L forms follow the SMILES beside them. No end group written: not given here.

Assays:
HEK-293T-Jagged-1 cells = format: cell-based, human
Experimental: (§1) HCT-116, HCT-15, S1-M1-80, S1, L929, HEK293T-Jagged-1 were seeded in each well of a 96-well plate with a series of concentrations (a serial dilution from 1000μM to 0.5 μM) of peptides or drugs including DAPT, Topotecan at 37° C. with 5% CO2 in a humidified incubator for 3 days. Percentage of survival was determined by MTS assay as described.

S1-M1-80 cells [1] = assay: cells; format: cell-based, human
Experimental: as §1

in vitro = format: cell-based; conditions: mouse
Experimental: as §1

S1 = assay: cells; format: cell-based, human
Experimental: as §1

Jag1-Notch1 signalling = assay: Co-culture Notch luciferase reporter assay, Jag1-induced; format: cell-based, human; conditions: peptides 25 μM
Experimental: Jag1-Notch interaction is measured using a co-culture assay with one cell line expressing the Notch ligand Jagged1 (Jag1) and a second expressing Notch (either Notch1 or Notch2). A firefly luciferase reporter plasmid with 12 upstream CBF-1 binding site was transfected into signalling-receiving cells to report on Notch signalling (FIG. 1D). Peptides were tested for their activity in inhibiting Jag1-induced Notch signalling. Complete inhibition is equivalent to the background signal seen without induction (−Jag1). […] N1 (SEQ ID NO: 10) is a 15-mer derived from the EGF-like repeat 12 of Notch1 (C467-G481). This is consistent with the structural information that EGF-like repeat 12 of Notch1 is near the MNNL domain of Jag1 (FIGS. 1B and C).
Specificity of N1 (SEQ ID NO: 10) peptide in inhibiting different Notch ligand-induced Notch signaling was investigated using in vitro co-culture assay. HEK293T or CHO cells expressing Notch ligand (either Jag1, DLL1 or DLL4) are co-cultured with Notch1- or Notch2-expressing cells. Notch1 and Notch2 signalling can be measured by either luciferase reporter assay or by the formation of NICD1 and NICD2. […] Half inhibition is reached at between 50 to 100 μM. […] This contrasts with DAPT which affects all the above interactions.
HEK-293T-Jagged-1 cells were seeded in 24-well plates in triplicate per sample group, and human HCT-116 cells were seeded in one 60 mm dish. Cells were allowed to settle, and were transfected the following day after the medium was changed to be antibiotic free. HCT-116 cells were transfected with 12×CSL-Luc and Renilla-Luc, using Lipofectamine® 3000 (Invitrogen™), according to the manufacturer's instructions. After 24 hours, HCT-116 cells were scraped and 2.5×10^4 cells in 1 mL complete medium per well were added to both 24-well plates. Peptides were treated to cells with the desired concentrations. N—[N-(3,5-difluorophenacetyl)-L-alanyl]-S-phenylglycine t-butyl ester (DAPT) was used as positive control. Cells were co-cultured for 12 hours before measure the luciferase activity. After incubation, cells were lysed with luciferase lysis buffer. Notch activity in cells expressing the 12×CSL-Luc reporter construct was measured by a luciferase assay using Dual-Luciferase® Reporter Assay System (Promega).

S1-M1-80 cells [2] = assay: Clonogenicity assay, S1-M1-80; format: cell-based, human; conditions: S1-M1-80, single agent 1 μM
Experimental: The procedure for colony formation assay consists of following steps. An appropriate number of cells per well were seeded on a 6-well plate in duplicate. The number of cells for seeding should be related to the aggressiveness of the treatment. The cells were incubated for 12 hours in a CO2 incubator at 37° C. and allow cells to attach to the plate. The cells were treated with peptides or (DAPT) to required concentrations. The cells were incubated in a in a CO2 incubator at 37° C. for about 10 days until cells in control well have formed colonies which are of a substantially good size (the minimum score is 100 cells per colony). After the incubation, the medium was removed and cells were rinsed with 5 ml 1×PBS (phosphate buffered saline. pH 7.2). The cells were then fixed with 1 ml methanol at room temperature for 10 min. After fixation, the cells were stained with 0.5% crystal violet solution and incubated at room temperature for 1 h. After staining, the plates were immersed in deionized water to rinse off crystal violet and air-dried at room temperature for overnight. The dry plates were pictured with scanner. The number of colonies in each well was counted by cell counter software.

Molecule	IC50 (S1-M1-80 cells [1])	IC50 (S1)	other results
CC[C@H](C)[C@H](NC(=O)[C@H](CCC(N)=O)NC(=O)[C@H](CC(=O)O)NC(=O)[C@H](CC(C)C)NC(=O)[C@H](CS)NC(=O)[C@@H](N)Cc1ccccc1)C(=O)NCC(=O)N[C@@H](CCC(=O)O)C(=O)N[C@@H](Cc1ccccc1)C(=O)N[C@@H](CCC(N)=O)C(=O)N[C@@H](CS)C(=O)N[C@H](C(=O)N[C@@H](CS)C(=O)N[C@@H](CCC(=O)O)C(=O)O)[C@@H](C)CC [N102T466F-M479E, FCLDQIGEFQCICE] (H-FCLDQIGEFQCICE-OH; N-terminus and C-terminus assumed)	43.9 ± 3.4 µM	–	IC50 (HEK-293T-Jagged-1 cells): > 100 µM; IC50 at 3 days (in vitro): > 100 µM
CC[C@H](C)[C@H](N)C(=O)N[C@@H](CS)C(=O)N[C@@H](CC(C)C)C(=O)N[C@@H](CC(=O)O)C(=O)N[C@@H](CCC(N)=O)C(=O)N[C@H](C(=O)NCC(=O)N[C@@H](CCC(=O)O)C(=O)N[C@@H](Cc1ccccc1)C(=O)N[C@@H](CCC(N)=O)C(=O)N[C@@H](CS)C(=O)N[C@H](C(=O)N[C@@H](CS)C(=O)N[C@@H](CCC(=O)O)C(=O)O)[C@@H](C)CC)[C@@H](C)CC [N102T466I-M479E, ICLDQIGEFQCICE] (H-ICLDQIGEFQCICE-OH; N-terminus and C-terminus assumed)	15.2 ± 4.2 µM	–	IC50 (HEK-293T-Jagged-1 cells): > 100 µM; IC50 at 3 days (in vitro): > 100 µM
CC[C@H](C)[C@H](NC(=O)[C@H](CCC(N)=O)NC(=O)[C@H](CC(=O)O)NC(=O)[C@H](CC(C)C)NC(=O)[C@H](CS)NC(=O)[C@@H](N)CC(C)C)C(=O)NCC(=O)N[C@@H](CCC(=O)O)C(=O)N[C@@H](Cc1ccccc1)C(=O)N[C@@H](CCC(N)=O)C(=O)N[C@@H](CS)C(=O)N[C@H](C(=O)N[C@@H](CS)C(=O)N[C@@H](CCC(=O)O)C(=O)O)[C@@H](C)CC [N102T466L-M479E, LCLDQIGEFQCICE] (H-LCLDQIGEFQCICE-OH; N-terminus and C-terminus assumed)	5.4 ± 1.2 µM	–	IC50 (HEK-293T-Jagged-1 cells): > 100 µM; IC50 at 3 days (in vitro): > 100 µM
CC[C@H](C)[C@H](NC(=O)[C@H](CCC(N)=O)NC(=O)[C@H](CC(=O)O)NC(=O)[C@H](CC(C)C)NC(=O)[C@H](CS)NC(=O)[C@@H](N)Cc1c[nH]c2ccccc12)C(=O)NCC(=O)N[C@@H](CCC(=O)O)C(=O)N[C@@H](Cc1ccccc1)C(=O)N[C@@H](CCC(N)=O)C(=O)N[C@@H](CS)C(=O)N[C@H](C(=O)N[C@@H](CS)C(=O)N[C@@H](CCC(=O)O)C(=O)O)[C@@H](C)CC [N102T466W-M479E, WCLDQIGEFQCICE] (H-WCLDQIGEFQCICE-OH; N-terminus and C-terminus assumed)	54.3 ± 5.2 µM	–	IC50 (HEK-293T-Jagged-1 cells): > 100 µM; IC50 at 3 days (in vitro): > 100 µM
CC[C@H](C)[C@H](NC(=O)[C@H](CS)NC(=O)[C@H](CCC(N)=O)NC(=O)[C@H](Cc1ccccc1)NC(=O)[C@H](CCC(=O)O)NC(=O)CNC(=O)[C@H](Cc1c[nH]c2ccccc12)NC(=O)[C@H](CCC(N)=O)NC(=O)[C@H](CC(=O)O)NC(=O)[C@H](CC(C)C)NC(=O)[C@@H](N)CS)C(=O)N[C@@H](CS)C(=O)N[C@@H](CCSC)C(=O)O [Peptide N102I471W, CLDQWGEFQCICM] (H-CLDQWGEFQCICM-OH; N-terminus and C-terminus assumed)	> 50 µM	> 100 µM	inhibition of Jag1-induced Notch signaling compared with N1 (Jag1-Notch1 signalling): slight improvement
CC[C@@]1(O)C(=O)OCc2c1cc1n(c2=O)Cc2cc3c(CN(C)C)c(O)ccc3nc2-1 [Topotecan, reference compound]	–	–	IC50 (S1; Homo sapiens, 72 h, S1 cells, 3 days, MTS, read-out: IC50 (μM) S1): 0.19 ± 0.05 µM; IC50 (S1-M1-80 cells [1]; Homo sapiens, 72 h, S1-M1-80 cells, 3 days, MTS, read-out: IC50 (μM) s1-m1-80): 14.9 ± 0.1 µM; colony formation (S1-M1-80 cells [2]): 1263 colonies/well

Further lines, with some results ahead:

IC50 (S1-M1-80 cells [1])	IC50 (S1)	Molecule	other results
14.1 ± 0.7 µM	> 50 µM	CC[C@H](C)[C@H](NC(=O)[C@H](CCC(N)=O)NC(=O)[C@H](CC(=O)O)NC(=O)[C@H](CC(C)C)NC(=O)[C@@H](N)CS)C(=O)NCC(=O)N[C@@H](CCC(=O)O)C(=O)N[C@@H](Cc1ccccc1)C(=O)N[C@@H](CCC(N)=O)C(=O)N[C@@H](CS)C(=O)N[C@H](C(=O)N[C@@H](CS)C(=O)N[C@@H](CCSC)C(=O)N1CCC[C@H]1C(=O)O)[C@@H](C)CC [Peptide N101, CLDQIGEFQCICMP] (H-CLDQIGEFQCICMP-OH; N-terminus and C-terminus assumed)	–
10.2 ± 0.4 µM	> 50 µM	CC[C@H](C)[C@H](NC(=O)[C@H](CCC(N)=O)NC(=O)[C@H](CC(=O)O)NC(=O)[C@H](CC(C)C)NC(=O)[C@@H](N)CS)C(=O)NCC(=O)N[C@@H](CCC(=O)O)C(=O)N[C@@H](Cc1ccccc1)C(=O)N[C@@H](CCC(N)=O)C(=O)N[C@@H](CS)C(=O)N[C@H](C(=O)N[C@@H](CS)C(=O)N[C@@H](CCSC)C(=O)O)[C@@H](C)CC [Peptide N102, CLDQIGEFQCICM] (H-CLDQIGEFQCICM-OH; N-terminus and C-terminus assumed)	inhibition of Jag1-induced Notch signaling compared with N1 (Jag1-Notch1 signalling): stronger inhibitory effect than N1
> 50 µM	> 100 µM	CC[C@H](C)[C@H](NC(=O)[C@H](CCC(N)=O)NC(=O)[C@H](CC(=O)O)NC(=O)[C@H](CC(C)C)NC(=O)[C@@H](N)CS)C(=O)NCC(=O)N[C@@H](CCC(=O)O)C(=O)N[C@@H](Cc1ccccc1)C(=O)N[C@@H](CCC(N)=O)C(=O)N[C@@H](CS)C(=O)N[C@H](C(=O)N[C@@H](CS)C(=O)O)[C@@H](C)CC [Peptide N103, CLDQIGEFQCIC] (H-CLDQIGEFQCIC-OH; N-terminus and C-terminus assumed)	–
28.4 ± 0.6 µM	> 50 µM	CC[C@H](C)[C@H](NC(=O)[C@H](CS)NC(=O)[C@H](CCC(N)=O)NC(=O)[C@H](Cc1ccccc1)NC(=O)[C@H](CCC(=O)O)NC(=O)CNC(=O)[C@@H](NC(=O)[C@H](CCC(N)=O)NC(=O)[C@H](CC(=O)O)NC(=O)[C@H](CC(C)C)NC(=O)[C@@H](N)CS)[C@@H](C)CC)C(=O)O [Peptide N104, CLDQIGEFQCI] (H-CLDQIGEFQCI-OH; N-terminus and C-terminus assumed)	inhibition of Jag1-induced Notch signaling compared with N1 (Jag1-Notch1 signalling): stronger inhibitory effect than N1
> 100 µM	> 100 µM	CC[C@H](C)[C@H](NC(=O)[C@H](CCC(N)=O)NC(=O)[C@H](CC(=O)O)NC(=O)[C@H](CC(C)C)NC(=O)[C@@H](N)CS)C(=O)NCC(=O)N[C@@H](CCC(=O)O)C(=O)N[C@@H](Cc1ccccc1)C(=O)N[C@@H](CCC(N)=O)C(=O)N[C@@H](CS)C(=O)O [Peptide N105, CLDQIGEFQC] (H-CLDQIGEFQC-OH; N-terminus and C-terminus assumed)	–
> 100 µM	> 100 µM	CC(C)C[C@H](NC(=O)[C@@H](N)CS)C(=O)N[C@@H](CC(=O)O)C(=O)N[C@@H](CCC(N)=O)C(=O)O [Peptide N111, CLDQ] (H-CLDQ-OH; N-terminus and C-terminus assumed)	–
> 100 µM	> 100 µM	CC[C@H](C)[C@H](N)C(=O)NCC(=O)N[C@@H](CCC(=O)O)C(=O)N[C@@H](Cc1ccccc1)C(=O)N[C@@H](CCC(N)=O)C(=O)N[C@@H](CS)C(=O)N[C@H](C(=O)N[C@@H](CS)C(=O)N[C@@H](CCSC)C(=O)N1CCC[C@H]1C(=O)NCC(=O)O)[C@@H](C)CC [Peptide N112, IGEFQCICMPG] (H-IGEFQCICMPG-OH; N-terminus and C-terminus assumed)	–
> 100 µM	> 100 µM	CLDQIG [Peptide N109, CLDQIG]	–
> 100 µM	> 100 µM	CLDQIGE [Peptide N108, CLDQIGE]	–
> 100 µM	> 100 µM	CLDQIGEF [Peptide N107, CLDQIGEF]	–
> 100 µM	> 100 µM	CLDQIGEFQ [Peptide N106, CLDQIGEFQ]	–
